# According to patent US11053205B2, “Phenazine derivatives as antimicrobial agents” (University of Florida Research Foundation, Incorporated, priority 2017, dated 2021):
# Values joined by “and” are separate entries in the source; they are usually repeats but may differ in a detail not shown here. Equal entries are not always repeated. Where two headings read alike, the source gives them in different places. Marks after values point to notes of the source that are not given here.
# What was measured:
# MRSA-1 = experiment: MIC, broth microdilution (CLSI)
# MRSE 35984 = experiment: MIC, broth microdilution (CLSI); conditions: for MRSE 35984 MIC: 16 to 18 hours at 37° C.
# MRSA-2 = experiment: MIC, broth microdilution (CLSI); conditions: for MRSA-2 MIC: 16 to 18 hours at 37° C.
# VRE 700221 = experiment: MIC, broth microdilution (CLSI); conditions: 16 to 18 hours at 37° C.
# MRSA BAA-1707 [1] = experiment: MIC, broth microdilution (CLSI); conditions: 0.10 = lowest concentration tested; for MRSA BAA-1707 MIC: 16 to 18 hours at 37° C.
# HeLa cells [2] = experiment: LDH release assay for HeLa cytotoxicity
# [3] = LDH release assay for HeLa cytotoxicity; conditions: human, HeLa cells
# [4] = tested on: M. tuberculosis H37Ra (ATCC 25177); experiment: MIC assay for Mycobacterium tuberculosis; assay type: cell-based; conditions: read-out: MtB H37Ra MIC
# Description: (§1) The culture was then diluted with fresh medium until an OD600 of 0.01 was reached. […] The final DMSO concentration was maintained at 0.5%. […] Three rows were reserved for each compound. […] OD600 absorbance was recorded using SPECTRAMAX M5 (Molecular Devices). Data obtained from three independent experiments were analyzed using Excel.
# as §1, with “SpectraMax” for “SPECTRAMAX”
# MRSA, MRSE, and VRE = experiment: MIC assays against MRSA, MRSE, and VRE (all strains); conditions: in words
# UV-Vis metal(II) binding = assay type: physicochemical; conditions: kinetics of UV-Vis experiments
# MRSA BAA-1707 [5] = experiment: Metal(II)-cation co-treatment MIC assay; assay type: cell-based; conditions: Staphylococcus aureus
# MRSA BAA-1707 biofilms = experiment: Calgary Biofilm Device (CBD) assay, MBC/MBEC; conditions: for MRSA BAA-1707 MBC / MRSA BAA-1707 MBEC: CBD; for MRSA BAA-1707 MBC: planktonic killing; for MRSA BAA-1707 MBEC: biofilm eradication
# VRE 700221 biofilms = experiment: Calgary Biofilm Device (CBD) assay, MBC/MBEC; conditions: for VRE 700221 MBC: planktonic killing
# MRSA BAA-1707 [6] = experiment: Macromolecular synthesis inhibition assay; assay type: cell-based, Staphylococcus aureus
# Description: Macromolecular synthesis experiments were carried out in methicillin-resistant Staphylococcus aureus BAA-1707. An overnight culture (100 μL) of S. aureus BAA-1707 was sub-cultured into 10 mL of fresh TSBG media, which was allowed to grow to exponential phase (OD600=0.2−0.3) before transferring 500 μL to each well in a 24 well-plate. The test compounds and vehicle control (DMSO) were added to achieve the desired concentrations relative to their MIC values against S. aureus BAA-1707. Treated cultures were then incubated at 37° C. for 30 minutes before radioactive precursors for DNA ([^3H] thymidine (0.5 μCi)), RNA ([^3H] uridine (0.5 μCi)) and protein ([^3H] leucine (1 μCi)) were added. […] DMSO served as the negative control. DNA and RNA radiolabeled cultures were then incubated in 37° C. for 15 minutes before being stopped by adding 60 μL of cold 5% trichloroacetic acid (TCA). The protein synthesis experiment was stopped after 40 minutes by adding 60 μL cold TCA. These mixtures were then incubated at 2° C. for at least 30 minutes before the contents of the plates were transferred onto glass microfiber filters (24 mm) and washed 5 times with 1 mL of 5% TCA. The filters are allowed to dry overnight before 3.5 mL of the scintillation fluid was added to the scintillation vials containing the filters and the radiation counts were measured using liquid scintillation LS 6500.
# For these experiments, MRSA-1707 cultures were treated with [^3H]-thymidine (DNA biosynthesis), [^3H]-uridine (RNA biosynthesis) and [^3H]-leucine (protein biosynthesis) in the presence of HP 1 and antibiotic controls (4-16×MIC).
# MRSA-1707 biofilms = experiment: CBD pulse experiments (two sequential 24 hour treatments); assay type: cell-based, Staphylococcus aureus; conditions: two sequential 24 hour compound treatments
# MRSE 35984 biofilms = experiment: Calgary Biofilm Device (CBD) assay, MBC/MBEC; conditions: CBD; for MRSE 35984 MBEC: biofilm eradication; for MRSE 35984 MBC: planktonic killing
# HeLa cells [7] = tested on: HeLa cells
# MRSA BAA-44 biofilms = experiment: Calgary Biofilm Device (CBD) assay, MBC/MBEC; conditions: for MRSA BAA-44 MBEC: biofilm eradication; for MRSA BAA-44 MBC: planktonic killing
# MRSA-2 biofilms = experiment: Calgary Biofilm Device (CBD) assay, MBC/MBEC; conditions: CBD; for MRSA-2 MBEC: biofilm eradication; for MRSA-2 MBC: planktonic killing
# S. epi 12228 = experiment: MIC, broth microdilution (CLSI); conditions: Staphylococcus epidermidis, 12228, read-out: S. epi 12228 MIC
# [8] = Mycobacterium tuberculosis, 168 h, seven days at 37° C.
# [9] = copper(II) at 200 μM, read-out: MIC w/ Cu2+
smiles,measurement,setting,value
Oc1c(Br)cc(Br)c2nc3c(O)c(Br)cc(Br)c3nc12 [HP 1-15],MRSA-1 MIC,MRSA-1; 16 to 18 hours at 37° C.,>50 ^ μM
same,MRSE 35984 MIC,MRSE 35984,>50 µM
same,MRSA-2 MIC,MRSA-2,>50 µM
same,VRE 700221 MIC,VRE 700221,>50 µM
same,MRSA BAA-1707 MIC,MRSA BAA-1707 [1],>50 µM
Oc1c(Br)cc(Br)c2nc3c(Br)cccc3nc12 [HP 1-23],selectivity index (HeLa IC50 to MRSA BAA-1707 MIC),HeLa cells [2],"> 2,000 fold"
same,IC50 at 24 h,[3],> 100 µM
same,Hemolysis at 200 μM,"human red blood cells; human, 1 h, 200 μM, pH 7.2",5.1%
same,MIC,[4]; [8],25 µM
O=C(OCCOCCOCCOCCO)OCOc1c(Br)cc(Br)c2nc3ccccc3nc12 [82A],activity in MIC assays,"MRSA, MRSE, and VRE",no activity in MIC assays
Oc1c(Br)cc(Br)c2nc3c(Cl)cccc3nc12 [HP 1-21],Hemolysis at 200 μM,"human red blood cells; human, 1 h, 200 μM, pH 7.2",≤1%
same,rate of copper(II) chelation,UV-Vis metal(II) binding,faster rate than HP 1
same,MIC,[4]; [8],50 µM
same,MIC,MRSA BAA-1707 [5]; [9],6.25 µM
Oc1c(Br)cc(Br)c2nc3cc(Oc4ccccc4)ccc3nc12 [Compound 63A],MRSE 35984 MIC,MRSE 35984,0.1^b μM
same,MRSA-2 MIC,MRSA-2,0.39 µM
same,Hemolysis at 200 μM,human red blood cells,≤1%
same,MIC,[4],6.25 µM
same,MRSA BAA-1707 MIC,MRSA BAA-1707 [1],0.075^a μM
same,VRE 700221 MBC,VRE 700221 biofilms; CBD,2.35 µM
"Oc1c(Br)cc(Br)c2nc3ccccc3nc12 [HP 1, 2,4-dibromophenazin-1-ol]",RNA biosynthesis inhibition ([3H]-uridine),MRSA BAA-1707 [6]; at 4×MIC,inhibits both RNA and protein biosynthesis
same,protein biosynthesis inhibition ([3H]-leucine),MRSA BAA-1707 [6]; at 4×MIC,inhibits both RNA and protein biosynthesis
same,DNA biosynthesis inhibition ([3H]-thymidine),MRSA BAA-1707 [6]; at 8×MIC,does not inhibit DNA biosynthesis
same,IC50 at 24 h,[3],100 µM
same,Hemolysis at 200 μM,"human red blood cells; human, 1 h, 200 μM, pH 7.2",≤1%
same,MIC,[4]; [8],25 µM
"CCCCCCCCCCCCCCCC[N+](C)(C)Cc1ccccc1.[Cl-] [BAC-16, reference compound]",MRSE 35984 MIC,MRSE 35984,1.56 µM
same,VRE 700221 MIC,VRE 700221,3.13 µM
same,MRSA BAA-1707 MBEC,MRSA BAA-1707 biofilms,15.6 µM
same,MRSA BAA-1707 MBC,MRSA BAA-1707 biofilms,31.3 µM
same,MRSA BAA-1707 MIC,MRSA BAA-1707 [1],1.56 µM
same,VRE 700221 MBEC,"VRE 700221 biofilms; CBD, biofilm eradication",3.0 µM
same,VRE 700221 MBC,VRE 700221 biofilms; CBD,5.9 µM
same,MBEC (pulse treatment),MRSA-1707 biofilms,25 µM
Cc1ccc2nc3c(Br)cc(Br)c(O)c3nc2c1 [HP 1-20],melting point,,213 to 215 °C
O=C(OCCSSCCOC(=O)c1ccccc1)OCOc1c(Br)cc(Br)c2nc3ccccc3nc12 [85A],activity in MIC assays,"MRSA, MRSE, and VRE",no antibacterial activity against any pathogen tested
CCN(CC)c1ccc2nc3c(O)c(Br)cc(Br)c3nc2c1Br [Compound 64A],MRSE 35984 MIC,MRSE 35984,0.1^b μM
same,MRSA-2 MIC,MRSA-2,0.3^a μM
same,Hemolysis at 200 μM,human red blood cells,≤1%
same,VRE 700221 MIC,VRE 700221,0.3^a μM
same,MRSE 35984 MBEC,MRSE 35984 biofilms,6.25 µM
same,MRSE 35984 MBC,MRSE 35984 biofilms,9.38 µM
same,MRSA BAA-1707 MBC,MRSA BAA-1707 biofilms,9.38 µM
same,MRSA BAA-1707 MIC,MRSA BAA-1707 [1],0.15^a μM
same,VRE 700221 MBC,VRE 700221 biofilms; CBD,2.35 µM
Oc1c(Br)cc(Br)c2nc3ccccc3nc12 [Compound 1A],IC50,HeLa cells [7],> 100 µM
same,MRSE 35984 MIC,MRSE 35984,1.17^a μM and 1.17 μM
same,MRSA BAA-44 MBEC,MRSA BAA-44 biofilms,150 µM
same,MRSA BAA-44 MBC,MRSA BAA-44 biofilms,375 µM
same,VRE 700221 MIC,VRE 700221,6.25 µM
same,MRSE 35984 MBEC,MRSE 35984 biofilms,100 µM
same,MRSE 35984 MBC,MRSE 35984 biofilms,50 µM
same,MRSA BAA-1707 MBEC,MRSA BAA-1707 biofilms,150 µM
same,MRSA BAA-1707 MBC,MRSA BAA-1707 biofilms,37.5 µM and 18.8 µM
same,MIC,[4],25 µM
same,VRE 700221 MBC,VRE 700221 biofilms; CBD,23.5 µM
same,MRSA-2 MBEC,MRSA-2 biofilms,100 µM
same,MRSA-2 MBC,MRSA-2 biofilms,50 µM
COCCOCCOCCOC(=O)OCOc1c(Br)cc(Br)c2nc3ccccc3nc12 [80A],activity in MIC assays,"MRSA, MRSE, and VRE",no activity in MIC assays
"c1ccc(CN(CCN(Cc2ccccn2)Cc2ccccn2)Cc2ccccn2)nc1 [TPEN, N,N,N′,N′-tetrakis(2-pyridylmethyl)ethane-1,2-diamine, reference compound]",MIC,"MRSA-1; Staphylococcus aureus, MRSA, read-out: MRSA-1 MIC",75 µM
same,MIC,"MRSE 35984; Staphylococcus epidermidis, MRSE, read-out: MRSE 35984 MIC, 16 to 18 hours at 37° C.",12.5 µM
same,MIC,"MRSA-2; Staphylococcus aureus, MRSA, read-out: MRSA-2 MIC",50 µM
same,Hemolysis at 200 μM,"human red blood cells; human, 1 h, 200 μM, pH 7.2",≤1%
same,MRSA BAA-1707 MBC,MRSA BAA-1707 biofilms,250 µM
same,MBC,"MRSA BAA-1707 biofilms; Staphylococcus aureus, BAA1707|MRSA, read-out: MRSA BAA-1707 MBC, CBD, planktonic killing",375 µM
same,MRSA BAA-1707 MIC,MRSA BAA-1707 [1],50 ^ μM
same,MIC,"MRSA BAA-1707 [1]; Staphylococcus aureus, BAA1707|MRSA, read-out: MRSA BAA-1707 MIC, 16 to 18 hours at 37° C.",46.9 µM
same,MBC,"VRE 700221 biofilms; Enterococcus, VRE, read-out: VRE 700221 MBC",188 µM
same,MIC,MRSA BAA-1707 [5]; [9],500 µM
same,MIC,"MRSA BAA-1707 [5]; iron(II) at 200 μM, read-out: MIC w/ Fe2+",125 µM
same,MIC,"MRSA BAA-1707 [5]; magnesium(II) at 200 μM, read-out: MIC w/ Mg2+",62.5 µM
same,MIC,"MRSA BAA-1707 [5]; no metal(II) cation added, read-out: MIC",46.9 µM
same,MIC,"MRSA BAA-1707 [5]; zinc(II) at 200 μM, read-out: MIC w/ Zn2+",250 µM
CCc1ccc2nc3c(O)c(Br)cc(Br)c3nc2c1 [Compound 53A],MRSE 35984 MIC,MRSE 35984,0.1^b μM
same,MRSA-2 MIC,MRSA-2,0.59^a μM
same,MRSA BAA-44 MBEC,MRSA BAA-44 biofilms,75^a/75^a μM
same,MRSA BAA-44 MBC,MRSA BAA-44 biofilms,75^a/75^a μM
same,Hemolysis at 200 μM,human red blood cells,3.0%
same,VRE 700221 MIC,VRE 700221,2.35^a μM
same,MRSE 35984 MBEC,MRSE 35984 biofilms,75 µM
same,MRSE 35984 MBC,MRSE 35984 biofilms,50 µM
same,MRSA BAA-1707 MBEC,MRSA BAA-1707 biofilms,150 µM
same,MRSA BAA-1707 MBC,MRSA BAA-1707 biofilms,75 µM
same,MIC,[4],6.25 µM
same,MRSA BAA-1707 MIC,MRSA BAA-1707 [1],0.1^b μM
same,MRSA-2 MBEC,MRSA-2 biofilms,150 µM
same,MRSA-2 MBC,MRSA-2 biofilms,75 µM
OC[C@H]1O[C@@H](Oc2c(Br)cc(Br)c3nc4ccccc4nc23)[C@H](O)[C@@H](O)[C@@H]1O [79A],activity in MIC assays,"MRSA, MRSE, and VRE",no activity in MIC assays
COCCOCCOCCOCCOC(=O)Oc1c(Br)cc(Br)c2nc3c(C)cccc3nc12 [HP 1-25],HeLa cell cytotoxicity at 100 μM,HeLa cells [7],no HeLa cell cytotoxicity
same,Hemolysis at 200 μM,"human red blood cells; human, 1 h, 200 μM, pH 7.2",≤1%
same,MIC,S. epi 12228,0.1 µM
same,MIC,[4]; [8],12.5 µM
